# Laboratory results reported in US6521776B2, “Immunological adjuvant compounds compositions and methods of use thereof” (Eisai Company, Limited, priority 2000, dated 2003).
# pEC50: −log10 of the molar value. Where two headings read alike, the source gives them in different places.
# Key:
# TNF-α = test: Induction of cytokines in vitro: TNF-α release in human whole blood (ELISA); format: cell-based; details: read-out: TNFa Stimulation Value
# Protocol: The ability to trigger a stimulatory response in macrophages is likely a necessary characteristic of molecules with imunoadjuvant properties. Therefore, the ability of compounds to stimulate release of TNF-α and other cytokines from immune cells is tested as an indication of their ability to stimulate an immune response, which may result in adjuvant activity.
# The most readily available human system to test compound activity on monocytes/macrophages is in whole blood. Various concentrations of compounds of the invention were added as 10×stocks in 50 μl of 5% dextrose followed by 50 μl of 5% dextrose into 400 μl of heparinized whole blood obtained from normal volunteers (18-51 years old; 110-230 lb) into the wells of plastic assay plates, for a total volume of 500 μl/well (final concentration of whole blood was 80%). The 10×stocks were made by dissolving compounds to 1 mM in water and sonicating them for 2 minutes in an ice bath. The compounds were then brought to 10× in 5% dextrose. After a 3-hour incubation with gentle shaking at 37° C. in a 5% CO2 atmosphere, the assay plates were centrifuged at 1000×g for 10 minutes at 4° C. and plasma was drawn off and frozen at −80° C. Plasma samples were analyzed for TNF-α by ELISA (R & D Systems, Minneapolis, Minn.). Each assay point was tested in triplicate.
# The stimulatory value is the compound concentration needed to stimulate TNF-α release equal to half the release obtained from the same whole blood sample with 10 ng/ml of LPS.
# [1] = tested on: tetanus toxoid-specific IgG; set-up: species or system Balb/c mice; details: mouse, in vivo, sc
SMILES,"pEC50 (TNF-α; Homo sapiens, 3 h)",Mean concentration of tetanus toxoid-specific IgG (6 mice/group) [1] [µg/mL],"pEC50 (TNF-α; compound concentration needed to stimulate TNF-α release equal to half the release obtained with 10 ng/ml LPS, 80% heparinized human whole blood, 3-hour incubation, 37° C.)"
CCCCCCCCCCCCCC(=O)N[C@H](CCCC(CCCCCCCC)OC(=O)CCCCCCCCCCCC)COP(=O)(O)OCCNC(=O)NCCOP(=O)(O)OC[C@@H](CCCC(CCCCCCCC)OC(=O)CCCCCCCCCCCC)NC(=O)CCCCCCCCCCCCC (stereo partly shown) [ER-805517],7.15,,
CCCCCCCCCCCCC/C=C/[C@@H](OC(=O)CCCCCCCCCCC)[C@H](COP(=O)([O-])OCCNC(=O)NCCOP(=O)([O-])OC[C@H](NC(=O)CCCCCCCCCCCCC)[C@@H](/C=C/CCCCCCCCCCCCC)OC(=O)CCCCCCCCCCC)NC(=O)CCCCCCCCCCCCC.[Na+].[Na+] [ER-805270],,1995,
CCCCCCCCCCCCC(=O)O[C@H](CCOP(=O)([O-])OCCNC(=O)NCCOP(=O)([O-])OCC[C@@H](OC(=O)CCCCCCCCCCCC)C(CCCCCCCCCC)OC(=O)CCCCCCCCCC)C(CCCCCCCCCC)OC(=O)CCCCCCCCCC.[Na+].[Na+] (stereo partly shown) [ER-805271],5.80,2010,
"CCCCCCCCCCCCC/C=C/[C@@H](OC(=O)CCCCCCCCCCC)[C@H](COP(=O)(O)OCCNC(=O)NCCOP(=O)(O)OC[C@H](NC(=O)CCCCCCCCCCCCC)[C@@H](/C=C/CCCCCCCCCCCCC)OC(=O)CCCCCCCCCCC)NC(=O)CCCCCCCCCCCCC (single isomer, unassigned) [ER-805270]",,,< 5.00
CCCCCCCCCCCCCC(=O)NC(CCCCCCCCC)CC[C@@H](COP(=O)(O)OCCNC(=O)NCCOP(=O)(O)OC[C@H](CCC(CCCCCCCCC)NC(=O)CCCCCCCCCCCCC)OC(=O)CCCCCCCCCCCCC)OC(=O)CCCCCCCCCCCCC (stereo partly shown) [ER-805328],6.69,,
CCCCCCCCCCCCC(=O)N[C@@H](CCOP(=O)([O-])OCCNC(=O)NCCOP(=O)([O-])OCC[C@H](NC(=O)CCCCCCCCCCCC)C(CCCCCCCCCC)OC(=O)CCCCCCCCCC)C(CCCCCCCCCC)OC(=O)CCCCCCCCCC.[Na+].[Na+] (stereo partly shown) [ER-805274],7.85,3218,
CCCCCCCCCCCCCC(=O)N[C@@H](COP(=O)([O-])OCCNC(=O)NCCOP(=O)([O-])OC[C@H](NC(=O)CCCCCCCCCCCCC)[C@H](CCCCCCCCCCC)OC(=O)CCCCCCCCCCC)[C@H](CCCCCCCCCCC)OC(=O)CCCCCCCCCCC.[Na+].[Na+] [ER-804874],8.05,5640,
